Test results as given in the supplement of paper PMC11061612.

Legend:
U-698-M = conditions: B-Cell Non-Hodgkin's Lymphoma
Procedure, shortened: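 Plates with 1536 wells received cancer cell lines in 7.5 μl of DMEM/F12 or RPMI containing 10% FBS. After 24 hours at 37°C and 5% CO2, cells were dosed for 72 hours with final DMSO typically 0.2%, and viability was read by CellTiter-Glo 2.0 luminescence scaled between blank-well and DMSO-well means. The single-agent IC50 was taken from a logistic fit of the dose responses made with a non-linear mixed effects model, that logistic curve having two parameters.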

[1] = tested on: BICR22 (Oral Cavity Carcinoma); test: Bliss excess, mean over the matrix (fraction); higher = more synergy
Procedure, shortened: (§1)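 After 24 hours at 37°C and 5% CO2 in 1536-well plates, cells in DMEM/F12 or RPMI plus 10% FBS received two-drug dose matrices for 72 hours. Viability came from CellTiter-Glo 2.0 luminescence and was scaled as inhibition, anchored at 0 by vehicle wells and at 1 by blank wells. Combination Emax is taken as the second-highest inhibition in the matrix, and Bliss excess as the observed combination effect less EA + EB − EA·EB, with EA and EB the single-agent effects.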

[2] = tested on: CAPAN-2 (Pancreatic Carcinoma); test: as above
Procedure, shortened: as §1

[3] = tested on: CCK-81 (Colorectal Carcinoma); test: as above
Procedure, shortened: as §1

[4] = tested on: COLO-320-HSR (Colorectal Carcinoma); test: as above
Procedure, shortened: as §1

[5] = tested on: ECC10 (Gastric Carcinoma); test: as above
Procedure, shortened: as §1

FU97 (Gastric Carcinoma) [6] = test: as above
Procedure, shortened: as §1

IGR-37 (Melanoma) [7] = test: as above
Procedure, shortened: as §1

[8] = tested on: KARPAS-422 (B-Cell Non-Hodgkin's Lymphoma); test: as above
Procedure, shortened: as §1

[9] = tested on: NCI-H1581 (Non-Small Cell Lung Carcinoma); test: as above
Procedure, shortened: as §1

[10] = tested on: NCI-H1666 (Lung Adenocarcinoma); test: as above
Procedure, shortened: as §1

[11] = tested on: NCI-H2066 (Squamous Cell Lung Carcinoma); test: as above
Procedure, shortened: as §1

[12] = tested on: NCI-H64 (Small Cell Lung Carcinoma); test: as above
Procedure, shortened: as §1

NY (Osteosarcoma) [13] = test: as above
Procedure, shortened: as §1

[14] = tested on: ONS-76 (Other Solid Carcinomas); test: as above
Procedure, shortened: as §1

[15] = tested on: PANC-10-05 (Pancreatic Carcinoma); test: as above
Procedure, shortened: as §1

[16] = tested on: TT (Thyroid Gland Carcinoma); test: as above
Procedure, shortened: as §1

U-2-OS (Osteosarcoma) [17] = test: as above
Procedure, shortened: as §1

[18] = tested on: VCaP (Prostate Carcinoma); test: as above
Procedure, shortened: as §1

[19] = tested on: BICR22 (Oral Cavity Carcinoma); test: combination Emax (second highest fraction inhibited in the dose matrix, 72 h); higher = more inhibition; extreme values may be limits of the assay
Procedure, shortened: as §1

[20] = tested on: CAPAN-2 (Pancreatic Carcinoma); test: as above
Procedure, shortened: as §1

[21] = tested on: CCK-81 (Colorectal Carcinoma); test: as above
Procedure, shortened: as §1

[22] = tested on: COLO-320-HSR (Colorectal Carcinoma); test: as above
Procedure, shortened: as §1

[23] = tested on: ECC10 (Gastric Carcinoma); test: as above
Procedure, shortened: as §1

FU97 (Gastric Carcinoma) [24] = test: as above
Procedure, shortened: as §1

IGR-37 (Melanoma) [25] = test: as above
Procedure, shortened: as §1

[26] = tested on: KARPAS-422 (B-Cell Non-Hodgkin's Lymphoma); test: as above
Procedure, shortened: as §1

[27] = tested on: NCI-H1581 (Non-Small Cell Lung Carcinoma); test: as above
Procedure, shortened: as §1

[28] = tested on: NCI-H1666 (Lung Adenocarcinoma); test: as above
Procedure, shortened: as §1

[29] = tested on: NCI-H2066 (Squamous Cell Lung Carcinoma); test: as above
Procedure, shortened: as §1

[30] = tested on: NCI-H64 (Small Cell Lung Carcinoma); test: as above
Procedure, shortened: as §1

NY (Osteosarcoma) [31] = test: as above
Procedure, shortened: as §1

[32] = tested on: ONS-76 (Other Solid Carcinomas); test: as above
Procedure, shortened: as §1

[33] = tested on: PANC-10-05 (Pancreatic Carcinoma); test: as above
Procedure, shortened: as §1

[34] = tested on: TT (Thyroid Gland Carcinoma); test: as above
Procedure, shortened: as §1

U-2-OS (Osteosarcoma) [35] = test: as above
Procedure, shortened: as §1

[36] = tested on: VCaP (Prostate Carcinoma); test: as above
Procedure, shortened: as §1
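For Bliss excess, mean over the matrix in this document: after 72 h of two-drug dosing.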

SMILES: O=C(Nc1ccc2[nH]nc(-c3ccncc3)c2c1)[C@@H]1CCN(CC(=O)N2CCN(c3ccc(-c4ncccn4)cc3)CC2)C1
- IC50, cell viability 72 h (U-698-M; max 5 µM): > 5000 nM

SMILES: O=c1[nH]cc(F)c(=O)[nH]1 [5-Fluorouracil]
- IC50, cell viability 72 h (U-698-M; max 20 µM): > 20000 nM

SMILES: CN(C)CCCOc1ccc(-c2ccc3ncc4c(c3c2)n(C2CCOCC2)c(=O)n4C)cn1 [AZD0156]
- IC50, cell viability 72 h (U-698-M; max 3 µM): > 3000 nM

SMILES: CC(C)n1c(=O)n(C)c2cnc3cc(F)c(-c4ccc(OCCCN5CCCCC5)nc4)cc3c21 [AZD1390]
- IC50, cell viability 72 h (U-698-M; max 0.3 µM): > 300 nM

SMILES: C=CCn1c(=O)c2cnc(Nc3ccc(N4CCN(C)CC4)cc3)nc2n1-c1cccc(C(C)(C)O)n1 [AZD1775]
- IC50, cell viability 72 h (U-698-M; max 3 µM): 260 nM

SMILES: CCN(CCO)CCCOc1ccc2c(Nc3cc(CC(=O)Nc4cccc(F)c4)[nH]n3)ncnc2c1 [AZD2811]
- IC50, cell viability 72 h (U-698-M; max 1 µM): > 1000 nM

SMILES: CN(CCO)CC[C@H](CSc1ccccc1)Nc1ccc(S(=O)(=O)NC(=O)c2ccc(N3CCC([C@@H](O)c4ccccc4-c4ccc(Cl)cc4)CC3)cc2)cc1S(=O)(=O)C(F)(F)F [AZD4320]
- IC50, cell viability 72 h (U-698-M; max 1 µM): > 1000 nM

SMILES: COc1nnc2ccc(N3CCC(c4ccc(OCCN5CCN(C)C(=O)[C@H]5C)cc4)CC3)nn12 [AZD5153]
- IC50, cell viability 72 h (U-698-M; max 1 µM): 265 nM

SMILES: NC1(C(=O)N[C@@H](CCO)c2ccc(Cl)cc2)CCN(c2ncnc3[nH]ccc23)CC1 [AZD5363]
- IC50, cell viability 72 h (U-698-M; max 10 µM): 8270 nM

SMILES: Cc1c2c(nn1C)CSCc1cc(n(C)n1)CSc1cc(c3ccccc3c1)OCCCc1c(C(=O)O)n(C)c3c-2c(Cl)ccc13 [AZD5991]
- IC50, cell viability 72 h (U-698-M; max 1 µM): 69.2 nM

SMILES: C[C@@H]1COCCN1c1cc(C2([S@](C)(=N)=O)CC2)nc(-c2ccnc3[nH]ccc23)n1 [AZD6738]
- IC50, cell viability 72 h (U-698-M; max 10 µM): 2210 nM

SMILES: Cc1cc2ncnn2cc1Nc1ncc2c(n1)n(C1CCOCC1)c(=O)n2C [AZD7648]
- IC50, cell viability 72 h (U-698-M; max 10 µM): > 10000 nM

SMILES: C[C@@H](Nc1cc(F)cc(F)c1)c1cc(C(=O)N(C)C)cc2c(=O)cc(N3CCOCC3)oc12 [AZD8186]
- IC50, cell viability 72 h (U-698-M; max 10 µM): > 10000 nM

SMILES: COc1cc(Nc2ncc3c(n2)-c2ccc(Cl)cc2C(c2c(F)cccc2OC)=NC3)ccc1C(=O)O [Alisertib]
- IC50, cell viability 72 h (U-698-M; max 10 µM): 8030 nM

SMILES: N.N.O=C([O-])C1(C(=O)[O-])CCC1.[Pt+2] [Carboplatin]
- IC50, cell viability 72 h (U-698-M; max 10 µM): > 10000 nM

SMILES: C[C@@H](Oc1cc(-c2cnn(C3CCNCC3)c2)cnc1N)c1c(Cl)ccc(F)c1Cl [Crizotinib]
- IC50, cell viability 72 h (U-698-M; max 10 µM): 5060 nM

SMILES: Cc1nc(Nc2ncc(C(=O)Nc3c(C)cccc3Cl)s2)cc(N2CCN(CCO)CC2)n1 [Dasatinib]
- IC50, cell viability 72 h (U-698-M; max 2 µM): > 2000 nM

SMILES: COc1cccc2c1C(=O)c1c(O)c3c(c(O)c1C2=O)C[C@@](O)(C(=O)CO)C[C@@H]3O[C@H]1C[C@H](N)[C@H](O)[C@H](C)O1 [Doxorubicin]
- IC50, cell viability 72 h (U-698-M; max 1 µM): 495 nM

SMILES: N#Cc1cnc(Nc2cc(NC[C@H]3CNCCO3)c(C(F)(F)F)cn2)cn1 [SRA737] + Nc1ccn([C@@H]2O[C@H](CO)[C@@H](O)C2(F)F)c(=O)n1 [Gemcitabine] (first compound max 10 µM, 7x7, partner max 0.3 µM)
- Bliss excess [1]: 0.0636
- Bliss excess [2]: 0.0141
- Bliss excess [3]: -0.0976
- Bliss excess [4]: 0.0911
- Bliss excess [5]: 0.0624
- Bliss excess (FU97 (Gastric Carcinoma) [6]): -0.0494
- Bliss excess (IGR-37 (Melanoma) [7]): -0.09
- Bliss excess [8]: 0.0409
- Bliss excess [9]: 0.176
- Bliss excess [10]: 0.0128
- Bliss excess [11]: -0.0332
- Bliss excess [12]: 0.0476
- Bliss excess (NY (Osteosarcoma) [13]): -0.0439
- Bliss excess [14]: -0.0843
- Bliss excess [15]: 0.0598
- Bliss excess [16]: -0.0551
- Bliss excess (U-2-OS (Osteosarcoma) [17]): 0.051
- Bliss excess [18]: -0.0259
- combination Emax [19]: 0.946
- combination Emax [20]: 0.319
- combination Emax [21]: 0.859
- combination Emax [22]: 0.815
- combination Emax [23]: 0.859
- combination Emax (FU97 (Gastric Carcinoma) [24]): 0.318
- combination Emax (IGR-37 (Melanoma) [25]): 0.782
- combination Emax [26]: 0.852
- combination Emax [27]: 0.957
- combination Emax [28]: 0.54
- combination Emax [29]: 0.208
- combination Emax [30]: 0.863
- combination Emax (NY (Osteosarcoma) [31]): 0.808
- combination Emax [32]: 0.811
- combination Emax [33]: 0.584
- combination Emax [34]: 0.469
- combination Emax (U-2-OS (Osteosarcoma) [35]): 0.829
- combination Emax [36]: 0.77

SMILES: N#Cc1cnc(Nc2cc(NC[C@H]3CNCCO3)c(C(F)(F)F)cn2)cn1 [SRA737] + O=c1[nH]cc(F)c(=O)[nH]1 [5-Fluorouracil] (first compound max 10 µM, 7x7, partner max 20 µM)
- Bliss excess [1]: 0.0671
- Bliss excess [2]: -0.0132
- Bliss excess [3]: -0.0681
- Bliss excess [4]: 0.0047
- Bliss excess [5]: 0.0718
- Bliss excess (FU97 (Gastric Carcinoma) [6]): -0.0344
- Bliss excess (IGR-37 (Melanoma) [7]): -0.057
- Bliss excess [8]: -0.0095
- Bliss excess [9]: 0.0093
- Bliss excess [10]: -0.0428
- Bliss excess [11]: -0.0379
- Bliss excess [12]: -0.0104
- Bliss excess (NY (Osteosarcoma) [13]): -0.0522
- Bliss excess [14]: -0.0482
- Bliss excess [15]: -0.0727
- Bliss excess [16]: 0.0035
- Bliss excess (U-2-OS (Osteosarcoma) [17]): -0.0167
- Bliss excess [18]: -0.046
- combination Emax [19]: 0.84
- combination Emax [20]: 0.147
- combination Emax [21]: 0.855
- combination Emax [22]: 0.302
- combination Emax [23]: 0.72
- combination Emax (FU97 (Gastric Carcinoma) [24]): 0.167
- combination Emax (IGR-37 (Melanoma) [25]): 0.728
- combination Emax [26]: 0.521
- combination Emax [27]: 0.411
- combination Emax [28]: 0.381
- combination Emax [29]: 0.197
- combination Emax [30]: 0.736
- combination Emax (NY (Osteosarcoma) [31]): 0.538
- combination Emax [32]: 0.835
- combination Emax [33]: 0.311
- combination Emax [34]: 0.373
- combination Emax (U-2-OS (Osteosarcoma) [35]): 0.625
- combination Emax [36]: 0.378
